Our source for the Activity values is ChEMBL document CHEMBL1158248, “Pessoine and spinosine, two catecholic berbines from Annona spinescens” (1996).

Where only a bound is given, the exact number is not on record here.

Common to all, as to format: functional
For experiment [1], the system named is Trypanosoma cruzi. Description: Trypanocidal activity against Trypanosoma cruzi trypomastigote assessed as lysis of trypomastigotes at 250 ug/mL after 24 hrs relative to control.
The subject of experiment [2] is Leishmania amazonensis. Description: Antileishmanial against Leishmania amazonensis promastigote LV 79 assessed as total lysis of parasites after 48 hrs.
The subject of experiment [3] is Leishmania donovani. Description: Antileishmanial against Leishmania donovani promastigote PP-75 assessed as lysis of parasites at 10 ug/mL after 48 hrs.
In experiment [4] the test system is Leishmania braziliensis. Nature of the experiment: Antileishmanial against Leishmania brasiliensis 2903 promastigote assessed as total lysis of parasites after 48 hrs.
Experiment [5] relates to Leishmania donovani. Nature of the experiment: Antileishmanial against Leishmania donovani promastigote PP-75 assessed as total lysis of parasites after 48 hrs.
Experiment [6] deals with Leishmania amazonensis. Description: Antileishmanial against Leishmania amazonensis promastigote LV 79 assessed as lysis of parasites at 10 ug/mL after 48 hrs.
Experiment [7] has as its system Leishmania braziliensis. Nature of the experiment: Antileishmanial against Leishmania brasiliensis 2903 promastigote assessed as lysis of parasites at 100 ug/mL after 48 hrs.
Experiment [8] has as its system Leishmania amazonensis. Description: Antileishmanial against Leishmania amazonensis promastigote LV 79 assessed as lysis of parasites at 50 ug/mL after 48 hrs.
The subject of experiment [9] is Leishmania donovani. Description: Antileishmanial against Leishmania donovani promastigote PP-75 assessed as lysis of parasites at 25 ug/mL after 48 hrs.

Consider `COc1cc2c(cc1O)[C@@H]1Cc3cc(O)c(O)cc3CN1CC2`, for which, in [1], the Activity turned out to be 55%.

For `COc1cc2c3c(c1O)-c1cc4c(cc1CC3N(C(C)=O)CC2)OCO4` (stereo unspecified) [ACETYLNORDOMESTICINE], in experiment [1], the Activity is 60%.

As to `c1ccc2c(c1)C[C@H]1NCCc3cc4c(c-2c31)OCO4` [ANONAINE], the Activity in [2] is 25 µg/mL; in [3] it was 90%; in experiment [1] it was 99%; in experiment [4], 50 µg/mL; in experiment [5] it was 100 µg/mL; in experiment [6] it was 90%.

For `CN(C)c1ccc(C(=C2C=CC(=[N+](C)C)C=C2)c2ccc(N(C)C)cc2)cc1.[Cl-]` [GENTIAN VIOLET], in experiment [1], the Activity was 100%.

As to `O=C1c2ccccc2-c2c3c(cc4ccnc1c24)OCO3` [LIRIODENINE], the Activity in experiment [2] was 100 µg/mL; in [7], 90%; in experiment [8], 90%; in experiment [1], 50%; in experiment [9], 90%; in experiment [5] it was 100 µg/mL.

Take `COC(=O)/C=C/c1cc(OC)c(O)c(OC)c1` [METHYL SINAPATE]: the Activity in experiment [1] is listed as 44%.

With `COc1cc2c(cc1O)-c1c(O)c(OC)cc3c1[C@H](C2)NCC3` [NORBRACTEOLINE], the Activity in [1] came to 62%.

In the case of `COc1cc2c3c(c1OC)C1(C=CC(=O)C=C1)C[C@@H]3NCC2` [STEPHARINE], in experiment [1], the Activity is on record as 65%.

Turning to MEGLUMINE ANTIMONATE, the Activity in experiment [2], in [4] and in experiment [5] was greater than 100 µg/mL each time.
